We go through 20 molecules from patent publication US7217710B2, “Substituted pyrazolopyrimidines” (SmithKline Beecham Corporation, priority 2001, dated 2007).

The target of assay [1] is T1, GST-TIE2 (intracellular domains of human TIE2) (Homo sapiens, UniProt Q02763).
T1 construct: made in house
Put plainly: TIE-2 Enzyme Assay (TIE2-E2), LANCE method. Format: biochemical. To be noted: for IC50: read-out: TIE2 PIC50 TIE2-E2 assay. Put shortly: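 GST-tagged human TIE2 intracellular domain (aa 762–1104), preactivated 2 h with 80 μM ATP, then 5 nM enzyme run 2 h at room temperature with 1 μM biotinylated D1–15 peptide, 80 μM ATP, HEPES pH 7.4, 2.4% DMSO. Phosphotyrosine detected by LANCE (Eu anti-pTyr/streptavidin-APC) after EDTA stop; IC50 by nonlinear regression, reported as pIC50.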

Assay [2] addresses T2, catalytic domain of human VEGFR3 (Homo sapiens, UniProt P35916, H890Q).
T2 construct: made in house; host or cells: Sf9 insect cells (baculovirus, pFastBac1)
Put plainly: VEGFR-3 Homogenous Time-Resolved Fluorescence Assay (VEGFR-3-HTRF). In kind it is biochemical. To be noted: for IC50: read-out: VEGFR3 PIC50 VEGFR-3-HTRF assay. The method in brief: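 GST-tagged human VEGFR3 catalytic domain (aa 819–1298, Sf9-expressed), pre-autophosphorylated 45 min with ATP/Mg, then 1 nM enzyme with 0.36 μM biotinylated peptide, 75 μM ATP, 10 mM MgCl2, pH 7.2, 1.5 h at room temperature. EDTA stop; HTRF detection; IC50 from hyperbolic fit of % control.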
(In TR-FRET formats the signal depends on donor and acceptor labels being close together.)

Assay [3] has as its target T3, TIE2 intracellular domain/c-fms extracellular domain (TIE2/c-fms) chimeric protein (Homo sapiens, UniProt Q02763).
T3 construct: fused on or other part: c-fms (CSF1R) extracellular domain in place of TIE2's own ectodomain; it serves as the capture handle for the anti-c-fms ELISA; P07333 (Macrophage colony-stimulating factor 1 receptor)
Put plainly: TIE-2 Autophosphorylation Assay (TIE2-C). In kind it is cell-based. To be noted: TIE2/c-fms expressing mouse 3T3 cells. Here is the method:
TIE-2 Autophosphorylation Assay (TIE2-C)
The TIE-2 autophosphorylation assay uses an ELISA method and a TIE2 intracellular domain/c-fms extracellular domain (TIE2/c-fms) chimeric protein expressing mouse 3T3 cell line. This assay measures the autophosphorylation level of TIE2 protein expressed in cells. The cells are cultured in 96 well plates and grown in high glucose DMEM containing 10% serum at 37° C. in a humidified 10% CO2, 90% air incubator. On the day of the assay, the serum containing medium is removed from the cells and replaced with serum free medium for one hour. The test compound (diluted from a 10 mM stock in DMSO, final DMSO concentration is 0.1%) is incubated with TIE2/c-fms expressing cells for 30 minutes in serum free DMEM. Intrinsic cellular dephosphorylation of the receptor is blocked by the addition of the tyrosine phosphatase inhibitor, sodium orthovanadate, from a 100 mM aqueous stock to a final concentration of 1 mM. The culture media is removed by aspiration and the cells incubated for 30 to 60 mins on ice with lysis buffer containing 137 mM NaCl, 2 mM EDTA, 10% glycerol, 1 mM sodium ortho vanadate, 1×tyrosine phosphatase inhibitor cocktail (Sigma) and complete protease inhibitor cocktail (Roche) in 20 mM Tris-HCl (pH8.0). The cell extracts are transferred into Rat anti-c-fms antibody (Zymed-clone 12-2d6) ([…]) coated 96 well plates and incubated for 12 hrs at 4 degrees. The extracts are removed by aspiration and the plate, washed in a buffer comprising PBS, 0.05% Tween-20, 0.05% NP-40 and 5% SuperBlock (Pierce) followed by incubation with an HRP (horseradish peroxidase) conjugated anti-phosphotyrosine antibody, (Upstate Biotech) The plates are again washed with the aforementioned wash buffer and the colorimetric HRP substrate, TMB is added. The reaction progresses for 90 seconds and is stopped with the addition of 2M H2SO4. The optical density at 450 nm derived from HRP catalyzed TMB is measured with a plate reader capable of reading at the appropriate wavelength (e.g. SpectroMax from Molecular Dynamics). The percent inhibition of activity is calculated relative to non-vanadate treated control wells. The concentration of test compound that inhibits 50% of activity (IC50) is interpolated using nonlinear regression (Levernberg-Marquardt) and the equation, y=Vmax (1−x/(K+x))+Y2, where “K” is equal to the IC50.

The target of another assay is Recombinant GST-Tie2 (Homo sapiens, UniProt Q02763). Put plainly: Tie2 Fluorescence Polarization Kinase Activity Assay (TIE2-FP). In kind it is biochemical. Here is the method:
Tie2 Fluorescence Polarization Kinase Activity Assay: (TIE2-FP)
Activation of Recombinant Tie2 Activation:
Recombinant GST-Tie2 is activated by incubating the enzyme in 20 mM Tris-HCl, pH 7.5, 12 mM MgCl2, 100 mM NaCl, 20 μM sodium vanidate, 1 mM DTT and 300 μM ATP at room temperature for 2 hours. The activation mixture is then passed through a NAP-25 desalting column (Pharmacia Biotech cat. no. 17-0852-02) to remove the free ATP. The activated enzyme is stored as aliquots at −80° C. in 20 mM Tris-HCl, pH 7.5 and 100 mM NaCl.
The final assay conditions are 50 mM HEPES, pH 7.5, 5% DMSO (when screening compounds), 200 μM ATP, 5 mM MgCl2, 1 mM DTT, 50 μM sodium vanidate, 1 nM activated enzyme, and 200 μM peptide. IC50's of compounds are measured under subsaturating ATP (200 μM) and varying concentrations of activated Tie2 and peptide substrate (RFWKYEFWR-OH; MW 1873 Da, TFA salt). Panvera Anti-phosphotyrosine antibody (Cat#P2840) and PTK Green Tracer (Cat#P2842) are used to detect the phosphorylated peptide. Polarization is measured on a TECAN Polarion in 138-second cycles for 30 minutes at room temperature. IC50's are then determined from the % polarization using normal calculation methods. The IC50 values are converted to pIC50 values, i.e., −log IC50 in Molar concentration.
(In general: In fluorescence polarisation assays a small probe gives low polarisation when free and higher when bound to something large.)

The target of a further assay is T4, GST-VEGFR2 (Homo sapiens, UniProt P35968).
T4 construct: GST-VEGFR2, baculovirus expressed recombinant constructs of the intracellular domains; made in house
T4 sequence (P35968 786-1356 limits assumed): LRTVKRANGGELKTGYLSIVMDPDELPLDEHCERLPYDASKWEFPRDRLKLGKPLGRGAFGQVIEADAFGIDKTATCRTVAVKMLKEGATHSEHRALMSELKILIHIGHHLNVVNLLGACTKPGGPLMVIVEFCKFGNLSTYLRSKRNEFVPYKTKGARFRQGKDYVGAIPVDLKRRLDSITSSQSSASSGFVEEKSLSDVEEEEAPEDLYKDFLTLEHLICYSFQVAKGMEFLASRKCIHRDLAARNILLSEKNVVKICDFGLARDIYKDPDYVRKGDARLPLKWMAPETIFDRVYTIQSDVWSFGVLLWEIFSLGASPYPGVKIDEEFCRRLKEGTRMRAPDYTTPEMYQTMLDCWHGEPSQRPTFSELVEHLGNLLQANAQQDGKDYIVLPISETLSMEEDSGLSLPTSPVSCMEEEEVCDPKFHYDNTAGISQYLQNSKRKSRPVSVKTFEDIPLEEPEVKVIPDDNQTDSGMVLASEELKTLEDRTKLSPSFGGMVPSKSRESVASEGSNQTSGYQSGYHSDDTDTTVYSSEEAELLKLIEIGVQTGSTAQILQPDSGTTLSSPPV
Put plainly: VEGF-R2 Enzyme Assay (VEGF-E2), LANCE method. Format: biochemical. To be noted: for IC50: read-out: VEGFR2 PIC50 VEGFR-E2 assay.

By inhibition is commonly meant the drop in the measured response relative to a control, in per cent.

T2 sequence (P35916 with tags, fused parts or gaps isoform P35916-1 H890Q): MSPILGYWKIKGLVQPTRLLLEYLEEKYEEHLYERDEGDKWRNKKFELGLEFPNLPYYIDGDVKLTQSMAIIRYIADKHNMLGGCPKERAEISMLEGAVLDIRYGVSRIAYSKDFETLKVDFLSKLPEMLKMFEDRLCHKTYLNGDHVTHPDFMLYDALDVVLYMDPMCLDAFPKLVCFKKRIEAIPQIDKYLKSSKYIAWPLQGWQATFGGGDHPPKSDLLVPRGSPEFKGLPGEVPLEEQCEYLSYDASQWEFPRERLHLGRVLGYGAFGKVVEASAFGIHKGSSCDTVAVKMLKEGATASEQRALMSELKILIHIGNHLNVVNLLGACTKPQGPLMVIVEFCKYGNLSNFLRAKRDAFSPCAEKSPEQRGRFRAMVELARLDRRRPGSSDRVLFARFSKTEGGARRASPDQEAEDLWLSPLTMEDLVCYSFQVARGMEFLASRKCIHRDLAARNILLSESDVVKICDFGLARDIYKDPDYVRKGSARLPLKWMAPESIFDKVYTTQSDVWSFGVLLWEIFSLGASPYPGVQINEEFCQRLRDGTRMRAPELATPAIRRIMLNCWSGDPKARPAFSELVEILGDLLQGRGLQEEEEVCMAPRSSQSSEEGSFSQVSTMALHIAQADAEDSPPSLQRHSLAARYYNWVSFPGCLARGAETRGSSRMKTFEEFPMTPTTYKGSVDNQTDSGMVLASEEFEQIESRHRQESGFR
T1 sequence (Q02763 762-1104): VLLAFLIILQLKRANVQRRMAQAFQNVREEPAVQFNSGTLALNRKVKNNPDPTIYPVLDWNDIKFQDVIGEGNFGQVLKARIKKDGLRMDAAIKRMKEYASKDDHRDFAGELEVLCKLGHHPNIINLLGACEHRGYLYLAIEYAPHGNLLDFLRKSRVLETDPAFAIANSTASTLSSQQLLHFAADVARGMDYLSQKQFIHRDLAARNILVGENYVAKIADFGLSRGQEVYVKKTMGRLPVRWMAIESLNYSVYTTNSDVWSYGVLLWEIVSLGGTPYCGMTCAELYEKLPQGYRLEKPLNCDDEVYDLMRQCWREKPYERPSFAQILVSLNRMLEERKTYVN
Sequence of Recombinant GST-Tie2 (Q02763 23-1124): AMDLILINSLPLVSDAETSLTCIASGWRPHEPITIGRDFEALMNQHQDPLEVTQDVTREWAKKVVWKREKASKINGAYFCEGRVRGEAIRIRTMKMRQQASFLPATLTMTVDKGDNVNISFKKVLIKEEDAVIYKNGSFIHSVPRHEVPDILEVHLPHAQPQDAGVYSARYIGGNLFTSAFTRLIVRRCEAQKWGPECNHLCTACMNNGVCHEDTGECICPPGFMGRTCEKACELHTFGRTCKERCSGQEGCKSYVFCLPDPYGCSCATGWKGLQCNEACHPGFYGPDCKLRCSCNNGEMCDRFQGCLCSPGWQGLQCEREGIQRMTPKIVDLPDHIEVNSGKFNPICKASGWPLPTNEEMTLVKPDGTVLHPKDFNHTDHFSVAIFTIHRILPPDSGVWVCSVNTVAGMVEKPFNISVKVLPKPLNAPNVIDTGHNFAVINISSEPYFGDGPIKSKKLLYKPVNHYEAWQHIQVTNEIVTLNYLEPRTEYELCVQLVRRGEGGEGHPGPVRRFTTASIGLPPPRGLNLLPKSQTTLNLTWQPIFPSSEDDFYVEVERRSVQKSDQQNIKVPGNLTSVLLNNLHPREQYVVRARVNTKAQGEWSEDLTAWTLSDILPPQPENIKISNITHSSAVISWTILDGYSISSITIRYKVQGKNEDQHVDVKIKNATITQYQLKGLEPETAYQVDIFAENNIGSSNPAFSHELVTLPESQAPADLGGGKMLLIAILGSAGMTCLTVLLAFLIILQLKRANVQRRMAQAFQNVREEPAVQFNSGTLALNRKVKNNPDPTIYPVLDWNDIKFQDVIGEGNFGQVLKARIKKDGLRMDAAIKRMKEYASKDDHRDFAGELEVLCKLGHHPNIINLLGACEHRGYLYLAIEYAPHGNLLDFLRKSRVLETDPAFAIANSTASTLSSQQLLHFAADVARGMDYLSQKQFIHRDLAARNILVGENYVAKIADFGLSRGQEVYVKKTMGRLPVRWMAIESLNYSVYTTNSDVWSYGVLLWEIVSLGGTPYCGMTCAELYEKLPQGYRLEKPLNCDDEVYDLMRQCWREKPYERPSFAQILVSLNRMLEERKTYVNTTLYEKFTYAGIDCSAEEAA
T3 sequence (Q02763 whole entry, change not shown, the tested form may be a part): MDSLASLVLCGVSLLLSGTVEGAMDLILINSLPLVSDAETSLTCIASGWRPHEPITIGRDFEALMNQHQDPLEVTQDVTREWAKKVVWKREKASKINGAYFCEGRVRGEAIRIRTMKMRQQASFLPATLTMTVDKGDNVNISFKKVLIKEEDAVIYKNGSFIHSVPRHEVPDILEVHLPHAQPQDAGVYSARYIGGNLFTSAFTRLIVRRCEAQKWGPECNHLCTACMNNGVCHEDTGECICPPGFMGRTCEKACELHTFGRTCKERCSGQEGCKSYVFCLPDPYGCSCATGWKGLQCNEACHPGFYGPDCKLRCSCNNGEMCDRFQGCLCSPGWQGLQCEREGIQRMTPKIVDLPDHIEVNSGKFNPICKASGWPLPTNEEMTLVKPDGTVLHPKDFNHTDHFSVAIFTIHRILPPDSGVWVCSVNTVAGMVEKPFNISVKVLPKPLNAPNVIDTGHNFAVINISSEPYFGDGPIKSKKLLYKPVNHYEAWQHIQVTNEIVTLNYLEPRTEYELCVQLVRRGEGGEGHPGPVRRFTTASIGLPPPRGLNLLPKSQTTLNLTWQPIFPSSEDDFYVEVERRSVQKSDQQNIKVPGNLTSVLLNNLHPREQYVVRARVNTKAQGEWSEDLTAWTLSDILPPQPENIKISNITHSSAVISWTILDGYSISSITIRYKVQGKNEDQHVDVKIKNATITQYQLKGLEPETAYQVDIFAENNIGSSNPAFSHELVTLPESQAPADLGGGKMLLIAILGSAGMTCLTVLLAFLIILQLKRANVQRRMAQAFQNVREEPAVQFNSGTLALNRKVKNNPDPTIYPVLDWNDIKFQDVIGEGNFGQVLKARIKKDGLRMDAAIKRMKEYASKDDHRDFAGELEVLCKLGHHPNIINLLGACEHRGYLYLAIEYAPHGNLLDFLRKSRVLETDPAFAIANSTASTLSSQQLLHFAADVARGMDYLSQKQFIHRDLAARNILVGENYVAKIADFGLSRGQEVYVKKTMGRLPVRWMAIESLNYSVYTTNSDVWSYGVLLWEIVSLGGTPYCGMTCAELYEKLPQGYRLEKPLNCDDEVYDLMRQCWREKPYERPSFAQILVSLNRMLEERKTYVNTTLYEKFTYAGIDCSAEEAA

Turning to `CC1CCCCN1CCCNc1ncc2c(-c3ccc(NC(=O)Nc4cc(C(F)(F)F)ccc4F)cc3)nn(C)c2n1` (stereo not shown) [Example 85], the IC50 was no more than 39.8 nM in assay [1], greater than 10000 nM in assay [2] and no less than 300 nM in assay [3].

Turning to `Cn1nc(-c2ccc(NS(=O)(=O)c3cc(Cl)sc3Cl)cc2)c2cnc(NCCN3CCOCC3)nc21` [Example 149], the inhibition at 10 µM at Recombinant GST-Tie2 was 38%.

`Cn1nc(-c2ccc(NC(=O)Nc3cc(C(C)(C)C)on3)c(F)c2)c2cnc(NCCCN3CCOCC3)nc21` [Example 134]: the IC50 in assay [1] was no more than 39.8 nM; at GST-VEGFR2, greater than 10000 nM; in assay [3] it was 100 to 300 nM.

On to `Cn1nc(-c2ccc(NC(=O)Nc3cc(C(C)(C)C)on3)c(F)c2)c2cnc(NCCN3CCOCC3)nc21` [Example 57, 1-(5-tert-Butyl-isoxazol-3-yl)-3-{2-fluoro-4-[1-methyl-6-(2-morpholin-4-yl-ethylamino)-1H-pyrazolo[3,4-d]pyrimidin-3-yl]-phenyl}-urea], for which the IC50 in assay [1] is no more than 39.8 nM; at GST-VEGFR2, 1000 to 10000 nM; in assay [2] it was 1000 to 10000 nM; in assay [3], 100 to 300 nM.

`Cc1cc(-c2nn(C)c3nc(NCCN4CCOCC4)ncc23)ccc1NS(=O)(=O)c1ccc(Cl)s1` [Example 154]: the inhibition at 10 µM at Recombinant GST-Tie2 stood at 37%.

Consider `CC(C)n1nc(-c2ccc(NC(=O)Nc3cc(C(F)(F)F)ccc3F)cc2)c2cnc(NCCN3CCOCC3)nc21` [Example 78], for which, in assay [1], the “TIE2 PIC50 TIE2-E2 assay” value is given as “+++ (+++ = PIC50 = 7.00 to less than 7.40)”. Besides, the “VEGFR2 PIC50 VEGFR-E2 assay” value on GST-VEGFR2 is reported as “+ (+ = PIC50 = 5.00 to less than 6.00)”. Besides, in assay [2], the “VEGFR3 PIC50 VEGFR-3-HTRF assay” value is given as “+ (+ = PIC50 = 5.00 to less than 6.00)”. This molecule had an IC50 in assay [3] of no less than 300 nM.

As to `Cn1nc(-c2ccc(NC(=O)Nc3cc(C(F)(F)F)ccc3F)cc2)c2cnc(NCCCO)nc21` [Example 92, 1-(2-Fluoro-5-trifluoromethyl-phenyl)-3-{4-[1-methyl-6-(3-hydroxy-propylamino)-1H-pyrazolo[3,4-d]pyrimidin-3-yl]-phenyl} urea], the IC50 is no more than 39.8 nM in assay [1], 1000 to 10000 nM on GST-VEGFR2, 1000 to 10000 nM in assay [2] and less than 100 nM in assay [3].

As to `Cn1nc(-c2ccc(NC(=O)Nc3cc(C(F)(F)F)ccc3F)cc2)c2cnc(NCCCn3ccnc3)nc21` [Example 100, 1-(2-Fluoro-5-trifluoromethyl-phenyl)-3-{4-[1-methyl-6-(3-imidazol-1-yl-propylamino)-1H-pyrazolo[3,4-d]pyrimidin-3-yl]-phenyl} urea], the IC50 in assay [1] was no more than 39.8 nM; at GST-VEGFR2, 100 to 1000 nM; in assay [2] it was 1000 to 10000 nM; in assay [3] it was no less than 300 nM.

Turning to `Cn1nc(-c2ccc(NC(=O)Nc3cc(C(F)(F)F)ccc3F)cc2)c2cnc(NCCN3CCNC3=O)nc21` [Example 90], the IC50 in assay [1] is 39.8 to 100 nM; on GST-VEGFR2, 1000 to 10000 nM; in assay [2], 1000 to 10000 nM; in assay [3] it was no less than 300 nM.

For the molecule `Cc1cc(-c2nn(C)c3nc(NCCN4CCOCC4)ncc23)ccc1NS(=O)(=O)c1cccc(C(F)(F)F)c1` [Example 152], the inhibition at 10 µM at Recombinant GST-Tie2 was determined as 13%.

In the case of `Cn1nc(-c2ccc(NC(=O)Nc3cc(C(F)(F)F)ccc3F)cc2)c2cnc(NCCCN3CCOCC3)nc21` [Example 84], the IC50 is no more than 39.8 nM in assay [1], 1000 to 10000 nM on GST-VEGFR2, greater than 10000 nM in assay [2] and no less than 300 nM in assay [3].

As for `Cn1nc(-c2ccc(NC(=O)Nc3cc(C(F)(F)F)ccc3F)cc2)c2cnc(NCCc3c[nH]cn3)nc21` [Example 145], the IC50 was 39.8 to 100 nM in assay [1], 1000 to 10000 nM in assay [2] and no less than 300 nM in assay [3].

Regarding `Cn1nc(-c2ccc(NS(=O)(=O)c3cccc(C(F)(F)F)c3)cc2)c2cnc(NCCN3CCOCC3)nc21` [Example 156], the inhibition at 10 µM at Recombinant GST-Tie2 was 23%.

Turning to `Cc1cc(-c2nn(C)c3nc(NCCN4CCOCC4)ncc23)ccc1NS(=O)(=O)c1ccccc1F` [Example 153], at Recombinant GST-Tie2, the inhibition at 10 µM is 44%.

With `Cn1nc(-c2ccc(NS(=O)(=O)c3cccc(Cl)c3Cl)cc2)c2cnc(NCCN3CCOCC3)nc21` [Example 147], on Recombinant GST-Tie2, the inhibition at 10 µM came out at 49%.

`Cn1cncc1CCNc1ncc2c(-c3ccc(NC(=O)Nc4cc(C(F)(F)F)ccc4F)cc3)nn(C)c2n1` [Example 146, 1-(2-Fluoro-5-trifluoromethyl-phenyl)-3-{4-[(1-methyl-6-(2-[3-methyl-3H-imidazol-4-yl)-ethylamino)-1H-pyrazolo[3,4-d]pyrimidin-3-yl]-phenyl]} urea]: the IC50 in assay [1] was 39.8 to 100 nM; in assay [2], 100 to 1000 nM; in assay [3] it was no less than 300 nM.

Regarding `CN1CCN(CCCNc2ncc3c(-c4ccc(NC(=O)Nc5cc(C(F)(F)F)ccc5F)cc4)nn(C)c3n2)CC1` [Example 64], the IC50 was no more than 39.8 nM in assay [1], greater than 10000 nM on GST-VEGFR2, greater than 10000 nM in assay [2] and no less than 300 nM in assay [3].

With “1-(5-tert-Butyl-isoxazol-3-yl)-3-{2-fluoro-4-[1-methyl-6-(3-(imidazol-1-yl propylamino)-1H-pyrazolo[3,4-d]pyrimidin-3-yl)-phenyl]} urea [Example 139]”, the “TIE2 PIC50 TIE2-E2 assay” value in assay [1] was “++++ (++++ = PIC50 = greater than or equal to 7.40)”. The “VEGFR2 PIC50 VEGFR-E2 assay” value at GST-VEGFR2 was “+ (+ = PIC50 = 5.00 to less than 6.00)”. Besides, in assay [2], the “VEGFR3 PIC50 VEGFR-3-HTRF assay” value was “+ (+ = PIC50 = 5.00 to less than 6.00)”. The molecule further gave an IC50 in assay [3] of 100 to 300 nM.

For the molecule `Cn1nc(-c2ccc(NC(=O)Nc3cc(C(F)(F)F)ccc3F)cc2)c2cnc(NCCCCN3CCCC3)nc21` [Example 91, 1-(2-Fluoro-5-trifluoromethyl-phenyl)-3-{4-[1-methyl-6-[(4-pyrrolidin-1-yl)-butylamino]-1H-pyrazolo[3,4-d]pyrimidin-3-yl]-phenyl} urea], the IC50 in assay [1] was no more than 39.8 nM; at GST-VEGFR2, 1000 to 10000 nM; in assay [2] it was 1000 to 10000 nM; in assay [3], 100 to 300 nM.

As to `Cn1nc(-c2ccc(NC(=O)Nc3cc(C(F)(F)F)ccc3F)cc2)c2cnc(NCCCCO)nc21` [Example 93, 1-(2-Fluoro-5-trifluoromethyl-phenyl)-3-{4-[1-methyl-6-(4-hydroxy-butylamino)-1H-pyrazolo[3,4-d]pyrimidin-3-yl]-phenyl} urea], the IC50 in assay [1] is no more than 39.8 nM; on GST-VEGFR2, 1000 to 10000 nM; in assay [2], 1000 to 10000 nM; in assay [3], 100 to 300 nM.
